# Assay results from article PMC13095408, “DBeQ derivative targets vacuolar protein sorting 4 functions in cancer cells and suppresses tumor growth in mice” (The Journal of Pharmacology and Experimental Therapeutics, 2025).
# Legend:
# [1] = tested on: GFP-CHMP4B-expressing U2OS cells; experiment: GFP-CHMP4B accumulation cell-based assay (high-content microscopy)
# Method: Plates were then scanned using the 20× objective for 1 hour with ≥100 cells/well across 6 fields/well. […] For all other assays, the cells were cultured overnight in black glass-bottom 96-well plates (Cellvis; P96-1.5H-N) then stained, rinsed, and treated with SM containing the indicated compounds (0.1% DMSO or 0.1% DMSO/0.1% ethanol [vehicle] final). Plates were scanned using the 20× NA .70 objective at the indicated intervals with ≥ 300 cells/well across 3 fields/well. […]
# VPS4B = biological target: T1, VPS4B (Homo sapiens, UniProt O75351); experiment: VPS4B ATPase activity, EnzChek Phosphate assay; type: biochemical; parameters: His tag (pET28a vector-encoded) (N); made in house; host or cells: Escherichia coli BL21(DE3)
# T1 sequence (O75351 1-444): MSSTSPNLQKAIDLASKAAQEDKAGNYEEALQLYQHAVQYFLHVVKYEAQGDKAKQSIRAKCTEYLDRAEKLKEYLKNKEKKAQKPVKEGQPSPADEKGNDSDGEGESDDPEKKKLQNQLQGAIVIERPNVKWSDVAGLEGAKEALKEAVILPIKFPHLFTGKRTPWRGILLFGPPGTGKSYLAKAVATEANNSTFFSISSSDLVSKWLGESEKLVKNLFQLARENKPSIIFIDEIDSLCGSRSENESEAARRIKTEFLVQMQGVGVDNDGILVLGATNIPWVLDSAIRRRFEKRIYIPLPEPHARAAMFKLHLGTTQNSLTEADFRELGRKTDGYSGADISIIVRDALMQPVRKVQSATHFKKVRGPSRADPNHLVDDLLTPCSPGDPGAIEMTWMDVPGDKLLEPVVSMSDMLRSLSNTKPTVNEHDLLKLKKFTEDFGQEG
# Method: VPS4B and VCP ATPase activities were measured using the EnzChek Phosphate assay for the quantification of released phosphate. Assay buffers were based on literature precedents ([Cupido et al, 2019], [2021]) as follows: VPS4B buffer (20 mM HEPES-KOH, pH 7.4, 25 mM KOAc, 2 mM MgCl2, 5 mM (NH4)2SO4, 0.5 mM CaCl2, 2.5 mM DTT, 0.1 mg/mL BSA, 0.005% v/v Triton X-100), VCP buffer (20 mM HEPES-NaOH, pH 7.4, 20 mM NaCl, 10 mM MgCl2, 5 mM (NH4)2SO4, 0.5 mM CaCl2, 2.5 mM DTT, 0.1 mg/mL BSA, 0.005% v/v Triton X-100). In black clear-bottom 384-well plates, 22.5 μL of 5% DMSO or 40× test compounds diluted in the respective assay buffer was added to each well. ATPases were diluted to 1 μM in the respective buffers containing 2× EnzChek Phosphate assay coupling reagents of 400 μM MESG and 2 U of PNP, then 25 μL was added to each well. Plates were mixed at 1000 rpm for 30 minutes at RT while being protected from light. The reaction was initiated by adding 2.5 μL of 20 mM MgATP or water followed by mixing at 1200 rpm for 30 seconds at RT. Plates were measured at 360 nm using a CLARIOstar plate reader (BMG LABTECH) for 20 minutes at 37 °C. ATPase activity was calculated as the amount of phosphate released over a 5-minute interval under linear initial velocity conditions. The remaining ATPase activity was calculated by normalizing compound-treated activity values to the DMSO control. IC50 was calculated by fitting normalized values to a sigmoidal dose-response curve with Hill slope = −1 using Graph Pad Prism 10.0.
# To identify VPS4i, we developed enzyme- and cell-based VPS4 functional assays to serve as VPS4i-screening platforms. For the enzyme-based assay, we used the colorimetric EnzChek Phosphate assay that detects free phosphate with the advantage of continuous measurement of ATP hydrolysis over time. […] Due to the high sequence and structural similarity of AAA-ATPases, we also established a VCP ATPase assay to evaluate hit selectivity. […] For the cell-based assay, our approach was based on how VPS4 inhibition causes the accumulation of ESCRT-III ([Babst et al, 1998]; [Katoh et al, 2003]). We used an N-terminal GFP-tagged CHMP4B reporter system because it is the most abundant ESCRT-III subunit ([Katoh et al, 2004]; [Teis et al, 2008]). Our aim was to test compounds under short-term serum and amino acid starvation to stimulate ESCRT activity for easier detection of inhibitors ([Takahashi et al, 2018], [2019]). […] Overall, we established 2 systems for VPS4i screening, a VPS4B ATPase activity assay and a GFP-CHMP4B accumulation cell-based assay.
# [2] = screened at 1 µM, mean ± S.D., Supplemental Table 2
# [3] = screened at 5 µM, mean ± S.D., Supplemental Table 2
Compound,"GFP-CHMP4B (% 4-107) [1, 2] [% 4-107]",VPS4B ATPase (% DMSO) (VPS4B; [3]),"GFP-CHMP4B (% 4-107) ([1]; screened at 1 μM, starvation media, 1 hour, foci intensity per cell normalized to 4-107, mean ± SD, Table 1)","VPS4B ATPase (% DMSO) (VPS4B; remaining ATPase activity, screened at 5 μM, mean ± SD, Table 1)"
COc1cccc2c(NCc3ccc(C(F)(F)F)cc3)nc(-n3ccc4cncnc43)nc12 [Compound 5-55],2.25 ± 0.55,93.20 ± 1.22,,
COc1ncnc2c1ccn2-c1nc(NCc2ccc(C(F)(F)F)cc2)c2cccc(OC)c2n1 [Compound 5-57],2.44 ± 0.81,93.98 ± 3.83,,
COc1cccc2c(NCCc3ccccc3)nc(-n3ccc4cncnc43)nc12 [Compound 5-59],2.84 ± 0.06,97.54 ± 1.15,,
COc1cccc2c(NCCc3cccnc3)nc(-n3ccc4cncnc43)nc12 [Compound 5-63],5.28 ± 0.27,90.35 ± 0.07,,
COc1ncnc2c1ccn2-c1nc(NCCc2cccnc2)c2cccc(OC)c2n1 [Compound 5-65],1.69 ± 0.46,89.36 ± 2.84,,
COc1cccc2c(NCc3ccccc3)nc(Nc3ccc4scnc4c3)nc12 [Compound 5-67],1.60 ± 0.33,51.60 ± 0.35,,
COc1cccc2c(NCc3ccccc3)nc(Nc3ccc4ncsc4c3)nc12 [Compound 5-69],2.10 ± 1.22,51.27 ± 1.54,,
COc1cccc2c(NCCc3ccccc3)nc(NCc3ccccc3)nc12 [Compound 5-73],5.34 ± 1.17,41.71 ± 2.35,,
COc1cccc2c(NCc3ccccc3)nc(NCCc3ccccc3)nc12 [Compound 5-75],2.25 ± 1.07,45.53 ± 1.40,,
COc1cccc2c(NCc3ccccc3)nc(Nc3ccc4ccccc4c3)nc12.Cl [Compound 5-79],3.40 ± 0.70,76.35 ± 3.47,,
COc1cccc2c(NCc3ccccc3)nc(N[C@@H](C)c3ccccc3)nc12 [Compound 5-81],7.65 ± 7.10,43.91 ± 0.05,,
COc1cccc2c(NCCc3ccccc3)nc(N[C@@H](C)c3ccccc3)nc12 [Compound 5-83],1.83 ± 1.02,42.92 ± 3.93,,
COc1cccc2c(NCc3ccccc3)nc(N[C@H](C)c3ccccc3)nc12 [Compound 5-89],9.13 ± 2.82,46.68 ± 2.80,,
COc1cccc2c(NCCc3ccccc3)nc(N[C@H](C)c3ccccc3)nc12 [Compound 5-91],1.69 ± 0.12,40.44 ± 0.01,,
COc1cccc2c(NCc3ccccc3)nc(N[C@@H](C)c3ccc4ccccc4c3)nc12 [Compound 5-93],5.34 ± 4.29,58.00 ± 2.01,,
COc1cccc2c(NCc3ccccc3)nc(N[C@H](C)c3ccc4ccccc4c3)nc12 [Compound 5-95],2.43 ± 1.04,42.87 ± 1.98,,
COc1cccc2c(NCCc3ccccc3)nc(N[C@@H](C)c3ccc4ccccc4c3)nc12 [Compound 5-97],1.82 ± 0.02,49.73 ± 0.04,,
COc1cccc2c(NCCc3ccccc3)nc(N[C@H](C)c3ccc4ccccc4c3)nc12 [Compound 5-99],3.40 ± 1.02,45.77 ± 2.14,,
COc1cccc2c(NCc3ccccc3)nc(N[C@@H](C)c3cccc4ccccc34)nc12 [Compound 5-101],2.43 ± 1.02,49.27 ± 0.19,,
COc1cccc2c(NCc3ccccc3)nc(N[C@H](C)c3cccc4ccccc34)nc12 [Compound 5-103],4.36 ± 1.56,45.60 ± 2.79,,
COc1cccc2c(NCc3ccccc3)nc(NCc3nc4ccccc4s3)nc12 [Compound 5-105],1.30 ± 1.20,56.25 ± 2.23,,
COc1cccc2c(NCCc3ccccc3)nc(NCc3nc4ccccc4s3)nc12 [Compound 5-107],0.24 ± 0.08,75.99 ± 2.63,,
COc1ccc2cccc(Nc3nc(NCc4ccccc4)c4cccc(OC)c4n3)c2c1 [Compound 5-119],2.49 ± 0.70,53.27 ± 1.65,,
COc1cccc2c(NCc3ccccc3)nc(Nc3cccc4cc5ccccc5cc34)nc12 [Compound 5-129],1.25 ± 0.86,63.24 ± 0.19,,
COC(=O)c1cccc2c1ccn2-c1nc(NCc2ccccc2)c2cccc(OC)c2n1 [Compound 5-135],4.63 ± 2.05,86.66 ± 2.70,,
COc1cccc2c(NCc3ccccc3)nc(-n3ccc4c(C(=O)O)cccc43)nc12 [Compound 5-137],2.21 ± 0.41,96.09 ± 2.11,,
COc1cccc2c(NCc3ccccc3)nc(-n3ccc4c(C(N)=O)cccc43)nc12 [Compound 5-139],1.75 ± 0.11,90.05 ± 5.58,,
O=[N+]([O-])c1cccc2c(NCc3ccccc3)nc(NCc3ccccc3)nc12 [Compound 5],15.05 ± 0.55,86.38 ± 2.37,15.05 ± 0.55,86.38 ± 2.37
COc1cccc2c(NCc3ccccc3)nc(NCc3cccc(OC(F)(F)F)c3)nc12 [Compound 7-11],22.15 ± 1.19,46.29 ± 0.61,,
COc1cccc2c(NCc3ccccc3)nc(NC(c3ccc(F)cc3)c3ccc(F)cc3)nc12 [Compound 7-13],12.60 ± 1.04,39.86 ± 1.36,,
